Measured values: patent US12569500B2, “Combination comprising tricycle compound and use thereof in preparation of medicament for treating HBV” (FUJIAN AKEYLINK BIOTECHNOLOGY CO., LTD., priority 2020, dated 2026)
Read-outs that look alike come from different tables or passages of the source.

Experiments:
HBV = test: AAV/HBV mouse model, anti-hepatitis B virus efficacy in vivo (serum/liver HBV DNA, serum HBV RNA); set-up: species or system C57BL/6 mice
Method: 5-week-old male C57BL/6 mice without specific pathogen level, purchased from Shanghai Slack Laboratory Animal Co., Ltd.
Compound 1 was added with an appropriate amount of the above-mentioned solvent, and a uniform particle suspension was obtained after vortexing, and the preparation concentration was 1.0, 3.0 and 10.0 mg/mL. Store at 4° C. until used. Compound 1 is calculated according to the salt coefficient of 1.0 and the purity of 100%.
Tenofovir disoproxil (TDF) was purchased from Shanghai Panhong Chemical Technology Co., Ltd. Weigh an appropriate amount of TDF and dissolve it in physiological saline to prepare a 1 mg/mL mother liquor, vortex until TDF is fully dissolved, dispense into 1 mL size and store at −20° C. Take 1 mL of mother liquor before each administration, and dilute the working solution 10 times to 0.1 mg/mL with normal saline for the day's administration.
rAAV8-1.3HBV (Type D, ayw) was purchased from Beijing Wujiahe Institute of Molecular Medicine, batch number x2018032301, 1×10^12 viral genome (v.g.)/mL. Dilute with sterile PBS to 5×10^11 v.g./mL before the experiment. Each mouse was injected with 200 μL, that is, each mouse was injected with 1×10^11 v.g.
AAV/HBV injection: rAAV8-1.3HBV is pre-prepared with sterile PBS to a concentration of 1×10^11 v.g./200 μL solution before injection.
Infection level detection: On days 14 and 21 after virus injection, about 120 μL of blood was collected from the submandibular vein for all infected mice to collect serum. After the whole blood was incubated in a 37° C. incubator for 30 minutes, the blood was centrifuged at 13,200×g for 3 minutes at 4° C. to collect about 30 μL of serum. The serum is stored at −80° C. for the detection of HBV DNA, HBeAg and HBsAg.
Grouping: On the 28th day after virus injection, according to the levels of HBV DNA, HBsAg and HBeAg in serum samples on the 14th and 21st days after virus injection, and the body weight of the mice.
Definition of experimental days: the day of the first dosing is set to day 0 of the experiment.
Serum sample preparation: After the blood sample was incubated at 37° C. for about 30 minutes, centrifuged at 4° C., 13,200 g for 3 minutes, and the separated supernatant was quickly frozen in dry ice.
Blood was collected from the heart to collect serum for HBV DNA detection and detection of HBV RNA levels in groups 1 and 4.
3. Quantitative PCR detection of HBV DNA content in mouse serum and liver:
Data analysis: The data is expressed as the average value standard error of each group of samples. Unless otherwise specified, groups 1-6: n=8. Use Student's t test for statistical analysis.

[1] = Pharmacokinetic analysis of test compounds in AAV/HBV model mice; format: in vivo, C57BL/6 mice
[2] = Single agent cytotoxicity, CellTiter-Glo; format: cell-based; details: human, HepG2.2.15 cells
Method: (§1) Cell line: HepG2.2.15 cells are constructed and provided by WuXi AppTec. The cell culture medium is DMEM/F12 medium supplemented with 2% fetal bovine serum, 2 mM glutamine, 1×non-essential amino acids, 100 U/mL penicillin and 100 µg/mL streptomycin.
2.1.1 On the first day, HepG2.2.15 cells were seeded into a 96-well cell culture plate at a density of 60,000 cells/well, and then the cells were cultured overnight at 5% CO2 and 37° C. On the second day, the compound 1 and the compound of formula (IIb) and the compound of formula (IIIb) were diluted and added to a 96-well plate. Each combination was a three-fold plate. The cells were cultured under 5% CO2 and 37° C. for 3 days. On the 5th day, a new culture medium containing the compound was replaced, and the supernatant was collected on the 8th day. The HBsAg in the supernatant was detected by ELISA, and the DNA in the supernatant was extracted at the same time, and the content of HBV DNA in the supernatant was detected by quantitative PCR. After collecting the cell supernatant, add CellTiter-Glo to detect cell viability.

HepG2.2.15 cells = test: Cytotoxicity of the compounds in combination, CellTiter Glo; format: cell-based
Method: as §1
2.2.1 On the first day, HepG2.2.15 cells were seeded into a 96-well cell culture plate at a density of 60,000 cells/well, and then the cells were cultured overnight at 5% CO2 and 37° C. On the second day, different concentrations of compounds were added to treat the cells. Compounds were diluted in gradients, 7×7 concentration combinations, and 3 replicate plates were tested in parallel. The compound concentration tested for joint activity is based on the EC50 value of each compound. The 7 concentration gradients are approximately: 2×, 1×, ½×, ¼×, ⅛×, 1/16× and 1/32×EC50. The compound concentration of the combined activity test experiment is shown in Table 8, and the combination drug arrangement is shown in Table 9. On the 5th day, replace the fresh culture medium containing the compound. On the 8th day, the culture supernatant was collected, DNA was extracted, and the content of HBV DNA was detected by quantitative PCR. At the same time, CellTiter Glo reagent was used to detect cell viability and MacSynergy software was used to analyze the combined effect of the two drugs.

[3] = 100 mpk BID, after 28 days of dosage, vs solvent group
[4] = 10 mg/kg, BID, AAV/HBV model mice, day 27
[5] = C57BL/6, mouse, serum, po, 10 mg/kg, BID, AAV/HBV model mice, day 27

In the case of Cc1cc2n(c1)S(=O)(=O)c1ccc(C(=O)NCC[C@H]3COCCO3)cc1NC2=O [Compound 1], the “serum HBV DNA content” value (HBV; 10 mpk BID (Group 2), after 7 days of dosage) is reported as “remained stable after 7 days of dosage”, the “HBV DNA content in the liver” value (HBV; 10 mpk BID, after 28 days of dosage, vs solvent group) is reported as “decreased” and the “serum HBV DNA content” value (HBV; 30 mpk BID, after 7 days of dosage) is reported as “remained stable after 7 days of dosage”. The “HBV DNA content in the liver” value (HBV; 30 mpk BID, after 28 days of dosage, vs solvent group) was “decreased”, the “serum HBV DNA content” value (HBV; 100 mpk BID, 7-28 days after dosage, vs solvent group, p<0.01) was “significantly lower than that in the solvent group” and the “HBV DNA content in the liver” value (HBV; [3]) was “decreased”. The “HBV RNA content in the serum” value (HBV; [3]) was “decreased”, the “mouse serum and liver HBV DNA” value (HBV; compared with the solvent control group) was “significantly reduced” and the “serum HBV DNA content, trend over doses” value (HBV; low (10 mpk), medium (30 mpk), high (100 mpk) dose groups BID vs solvent group, after 3 days of dosage) was “dose-dependent trend”. For the same compound, the AUC0-inf/AUC0-last [1, 4] was 101%, the Tlast [1, 4] was 24.0 h and the “T 1/2 calculation time range” value ([1]; 10 mg/kg, BID, AAV/HBV model mice, day 27, in h) was 9-24. For the same compound, the AUC(0-t) ([1]; C57BL/6, mouse, serum, po, 10 mg/kg, BID, AAV/HBV model mice, day 27, read-out: AUC0-8) was 26 µM·h, the AUC(0-t) ([1]; C57BL/6, mouse, serum, po, 10 mg/kg, BID, AAV/HBV model mice, day 27, read-out: AUC0-last) was 47.3 µM·h and the AUC(0-inf) [1, 5] was 47.6 µM·h. For the same compound, the Cmax [1, 5] was 12200 nM, the Tmax [1, 5] was 1 h and the half-life [1, 5] was 2.23 h. The MRT inf ([1]; C57BL/6, mouse, serum, po, 10 mg/kg, BID, AAV/HBV model mice, day 27, read-out: MRT0-inf) was 6.36 h, the MRT last ([1]; C57BL/6, mouse, serum, po, 10 mg/kg, BID, AAV/HBV model mice, day 27, read-out: MRT0-last) was 6.27 h and the concentration at 0 h ([1]; C57BL/6, mouse, serum, group 2, 10 mg/kg BID oral, day 27, 0 hours (before dosage), read-out: average drug concentration in the mouse serum) was 78 nM. The concentration at 4 h ([1]; C57BL/6, mouse, serum, group 2, 10 mg/kg BID oral, day 27, 4 hours after the first dosage, read-out: average drug concentration in the mouse serum) was 1630 nM, the concentration at 8 h ([1]; C57BL/6, mouse, serum, group 2, 10 mg/kg BID oral, day 27, 8 hours after the first dosage, read-out: average drug concentration in the mouse serum) was 605 nM and the concentration at 9 h ([1]; C57BL/6, mouse, serum, group 2, 10 mg/kg BID oral, day 27, 9 hours after the first dosage, read-out: average drug concentration in the mouse serum) was 10300 nM. The concentration at 12 h ([1]; C57BL/6, mouse, serum, group 2, 10 mg/kg BID oral, day 27, 12 hours after the first dosage, read-out: average drug concentration in the mouse serum) was 1280 nM, the concentration at 24 h ([1]; C57BL/6, mouse, serum, group 2, 10 mg/kg BID oral, day 27, 24 hours after the first dosage, read-out: average drug concentration in the mouse serum) was 66 nM and the CC50 at 6 days [2] was > 1000 nM. The “average cell viability percentage” value (HepG2.2.15 cells; Compound 1 0.1875 nM + formula (IIIb) 0 nM) was 110.07%, the “average cell viability percentage” value (HepG2.2.15 cells; Compound 1 0.1875 nM + formula (IIb) 0 nM) was 109.29% and the “average cell viability percentage” value (HepG2.2.15 cells; Compound 1 0.375 nM + formula (IIIb) 0 nM) was 112.42%. The “average cell viability percentage” value (HepG2.2.15 cells; Compound 1 0.375 nM + formula (IIb) 0 nM) was 109.88%, the “average cell viability percentage” value (HepG2.2.15 cells; Compound 1 0.75 nM + formula (IIIb) 0 nM) was 111.36% and the “average cell viability percentage” value (HepG2.2.15 cells; Compound 1 0.75 nM + formula (IIb) 0 nM) was 106.91%. For the same compound, the “average cell viability percentage” value (HepG2.2.15 cells; Compound 1 1.5 nM + formula (IIIb) 0 nM) was 111.96%, the “average cell viability percentage” value (HepG2.2.15 cells; Compound 1 1.5 nM + formula (IIb) 0 nM) was 105.37% and the “average cell viability percentage” value (HepG2.2.15 cells; Compound 1 3 nM + formula (IIIb) 0 nM) was 112.58%. The “average cell viability percentage” value (HepG2.2.15 cells; Compound 1 3 nM + formula (IIb) 0 nM) was 104.39%, the “average cell viability percentage” value (HepG2.2.15 cells; Compound 1 6 nM + formula (IIIb) 0 nM) was 112.45% and the “average cell viability percentage” value (HepG2.2.15 cells; Compound 1 6 nM + formula (IIb) 0 nM) was 103.50%. For the same compound, the “average cell viability percentage” value (HepG2.2.15 cells; Compound 1 12 nM + formula (IIIb) 0 nM) was 111.17% and the “average cell viability percentage” value (HepG2.2.15 cells; Compound 1 12 nM + formula (IIb) 0 nM) was 102.08%.
